Read-outs that look alike come from different tables or passages of the source. Starred links: 1 amine or outer side, 2 acyl side, 3 side chain; linkers in the order of their positions; H or OH if unused. Non-standard residues stand in square brackets, D forms with d. Groups on a side chain read outwards from the residue. No end group written: not given here. *: point of attachment. C20 diacid = O=C(O)CCCCCCCCCCCCCCCCCCC(=O)*; C18 diacid = O=C(O)CCCCCCCCCCCCCCCCC(=O)*; γGlu = O=C(O)[C@H](CCC(=O)[*:2])N[*:1]; εLys = N[C@@H](CCCCN[*:1])C(=O)[*:2]; AEEA = NCCOCCOCC(=O)O; Aib = CC(C)(N)C(=O)O
Key:
Type in all cases: cell-based
Details in all cases: CreLuc reporter gene assay
hGLP1R = biological target: T1, hGLP1R (Homo sapiens, UniProt P43220); test: hGLP1R CreLuc reporter gene assay in 0.5% and 100% plasma
T1 construct: expressed in transfected cells; host or cells: HEK-293 cells carrying a CRE-luciferase reporter gene
T1 sequence (P43220 24-463): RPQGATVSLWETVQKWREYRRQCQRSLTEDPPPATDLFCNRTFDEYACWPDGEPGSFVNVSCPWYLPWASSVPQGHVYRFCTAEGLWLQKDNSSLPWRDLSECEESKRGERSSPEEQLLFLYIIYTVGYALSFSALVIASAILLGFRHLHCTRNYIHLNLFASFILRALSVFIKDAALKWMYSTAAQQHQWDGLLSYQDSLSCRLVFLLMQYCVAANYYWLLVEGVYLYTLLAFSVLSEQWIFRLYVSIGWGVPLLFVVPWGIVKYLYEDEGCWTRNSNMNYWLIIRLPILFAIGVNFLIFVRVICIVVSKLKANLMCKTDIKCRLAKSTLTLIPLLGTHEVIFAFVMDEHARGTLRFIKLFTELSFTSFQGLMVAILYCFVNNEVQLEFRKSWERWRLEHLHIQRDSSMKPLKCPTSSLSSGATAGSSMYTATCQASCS
Summary of the method: (§1)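 HEK-293 cells co-expressing GLP-1 or NPY2 receptor and CHO cells expressing GIP receptor, each carrying a CRE-driven luciferase reporter, were stimulated with peptides for 4 hours at 37 °C. Luminescence was read after Bright-Glo addition. EC50 came from 8-point, four-decade curves fitted by variable-slope non-linear regression.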

hGIPR = biological target: T2, hGIPR (Homo sapiens, UniProt P48546); test: hGIPR CreLuc reporter gene assay in 0.5% and 100% plasma
T2 construct: expressed in transfected cells; host or cells: CHO cells carrying a CRE-luciferase reporter gene
T2 sequence (P48546 22-466): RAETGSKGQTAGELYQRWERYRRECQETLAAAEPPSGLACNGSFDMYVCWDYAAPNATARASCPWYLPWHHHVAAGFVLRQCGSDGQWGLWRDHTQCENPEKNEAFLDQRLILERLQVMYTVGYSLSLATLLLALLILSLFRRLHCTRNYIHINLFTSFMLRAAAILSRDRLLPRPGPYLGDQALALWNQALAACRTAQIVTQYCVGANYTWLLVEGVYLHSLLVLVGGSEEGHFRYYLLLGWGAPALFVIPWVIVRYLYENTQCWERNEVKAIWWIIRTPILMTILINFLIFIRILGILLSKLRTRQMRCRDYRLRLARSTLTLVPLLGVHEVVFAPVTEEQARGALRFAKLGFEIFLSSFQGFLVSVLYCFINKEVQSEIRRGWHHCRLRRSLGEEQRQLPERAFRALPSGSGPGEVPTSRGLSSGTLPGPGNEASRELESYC
Summary of the method: as §1

hNPY2R = biological target: T3, hNPY2R (Homo sapiens, UniProt P49146); test: hNPY2R CreLuc reporter gene assay in 0.5% and 100% plasma
T3 construct: expressed in transfected cells; host or cells: HEK-293 cells carrying a CRE-luciferase reporter gene
T3 sequence (P49146 1-381): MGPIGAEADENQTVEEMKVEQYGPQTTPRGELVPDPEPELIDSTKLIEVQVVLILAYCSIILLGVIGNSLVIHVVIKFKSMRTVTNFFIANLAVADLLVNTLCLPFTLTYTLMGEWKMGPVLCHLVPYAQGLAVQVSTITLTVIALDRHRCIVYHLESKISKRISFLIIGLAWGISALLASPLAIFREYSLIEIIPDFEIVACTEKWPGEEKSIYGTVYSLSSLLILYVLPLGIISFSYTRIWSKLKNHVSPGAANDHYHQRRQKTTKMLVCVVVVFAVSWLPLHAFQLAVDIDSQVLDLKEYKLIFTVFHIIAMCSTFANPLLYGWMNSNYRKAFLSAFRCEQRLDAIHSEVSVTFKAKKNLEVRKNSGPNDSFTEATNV
Description: Example 1: hGLPR/hGIPR/hNPY2R CreLuc Assay in 0.5% and 100% Plasma
CHO and HEK-293 recombinant cell lines express a luciferase reporter gene under control of the cAMP responsive element (CRE). As a second recombinant protein the GLP-1 and NPY2 receptors were expressed in the reporter gene HEK cells, and the GIP receptor was expressed in the reporter gene CHO cells, respectively. Stimulation of these recombinant cells with an agonist leads to an increase of intracellular cAMP levels. In the presence of cAMP, the transcription factor CRE binding protein (CREB) binds to the CRE and to the CREB binding protein (CBP), which leads to transcription of the luciferase reporter gene. Peptides upon serial-dilution in 100% DMSO were transferred into 384-well assay plates with 5 μl pre-dispensed assay buffer (1×HBSS, 20 mM HEPES, pH7.4 supplemented with 0.5% human plasma) using acoustic dispensing on a Labcyte ECHO. Cryo-preserved transgenic reporter gene cells were thawed in assay buffer. 20 μl (10.000 cells/well) were added to the plate with the peptides and incubated for 4 hours at 37° C. in a humidified incubator. Following incubation, assay plates are equilibrated to room temperature, followed by addition of 25 μl of Bright-GIo™ Luciferase reagent, incubation at room temperature for 10 minutes and analysis of luminescence (Envision Reader). Concentration response evaluation of compounds was performed with 8 concentrations of peptides (covering four decades). EC50 values were calculated by non-linear regression using sigmoid concentration-response with variable slope. The same assays were run in the presence of 100% plasma with no additional buffer constituents.

[1] = 0.5% human plasma, read-out: hGLP1R 0.5% hP
[2] = 0.5% human plasma, read-out: hGIPR 0.5% hP
[3] = 0.5% human plasma, read-out: hNPY2R 0.5% hP
[4] = 100% human plasma, read-out: hNPY2R 100% hP
[5] = 100% human plasma, read-out: hGIPR 100% hP
[6] = 100% human plasma, read-out: hGLP1R 100% hP

EC50 (hGLP1R; [1]) [nM]	EC50 (hGIPR; [2]) [nM]	EC50 (hNPY2R; [3]) [nM]	EC50 (hNPY2R; [4]) [nM]	EC50 (hGIPR; [5]) [nM]	EC50 (hGLP1R; [6]) [nM]	Substance
1.6	0.79	12.8	54.8	–	–	H-Y[Aib]EGTFTSDYSI[Aib]LEKQAQ[Aib]AFVEWLIK([εLys-γGlu-γGlu-γGlu-γGlu-γGlu-γGlu-C20 diacid])GGPSYYVSLRHYYNWLTRQRY-NH2 [Compound 80, Y-Aib-E-G-T-F-T-S-D-Y-S-I-Aib-L-E-K-Q-A-Q-Aib-A-F-V-E-W-L-I-K(1,3)-GGPSYYVSLRHYYNWLTRQRY-NH2.C20DA-gGlu-gGlu-gGlu-gGlu-gGlu-gGlu-eLys(1,2)]
0.11	0.13	12.1	–	1.27	–	H-Y[Aib]EGTFTSDYSI[Aib]LEKQAQ[Aib]AFVEWLIK([AEEA-AEEA-Glu-Glu-Glu-C18 diacid])GGPSEGASLRHYYNWLTRQRY-NH2 [Compound 298, Y-Aib-E-G-T-F-T-S-D-Y-S-I-Aib-L-E-K-Q-A-Q-Aib-A-F-V-E-W-L-I-K(1,3)-GGPSEGASLRHYYNWLTRQRY-NH2.C18DA-E-E-E-OEG-OEG(1,2)]
0.18	0.23	10.9	–	1.56	–	H-Y[Aib]EGTFTSDYSI[Aib]LEKQAQ[Aib]AFVEWLIK([AEEA-AEEA-γGlu-γGlu-γGlu-γGlu-C18 diacid])GGPSEPASLRHYYNWLTRQRY-NH2 [Compound 256, Y-Aib-E-G-T-F-T-S-D-Y-S-I-Aib-L-E-K-Q-A-Q-Aib-A-F-V-E-W-L-I-K(1,3)-GGPSEPASLRHYYNWLTRQRY-NH2.C18DA-gGlu-gGlu-gGlu-gGlu-OEG-OEG(1,2)]
0.21	0.19	15.3	36.8	1.64	–	H-Y[Aib]EGTFTSDYSI[Aib]LEKQAQ[Aib]AFVEWLIK([εLys-γGlu-γGlu-γGlu-γGlu-γGlu-γGlu-C20 diacid])GGPSYGASLRHYYNWLTRQRY-NH2 [Compound 232, Y-Aib-E-G-T-F-T-S-D-Y-S-I-Aib-L-E-K-Q-A-Q-Aib-A-F-V-E-W-L-I-K(1,3)-GGPSYGASLRHYYNWLTRQRY-NH2.C20DA-gGlu-gGlu-gGlu-gGlu-gGlu-gGlu-eLys(1,2)]
0.47	0.26	13.1	–	–	–	H-Y[Aib]EGTFTSDYSI[Aib]LEKQAQ[Aib]EFVEWLIK([γGlu-γGlu-γGlu-γGlu-γGlu-γGlu-C20 diacid])GGPSSGASLRHYYNWLTRQRY-NH2 [Compound 198, Y-Aib-E-G-T-F-T-S-D-Y-S-I-Aib-L-E-K-Q-A-Q-Aib-E-F-V-E-W-L-I-K(1,3)-GGPSSGASLRHYYNWLTRQRY-NH2.C20DA-gGlu-gGlu-gGlu-gGlu-gGlu-glu(1,2)]
0.1	–	11.6	–	–	2.55	Y[Aib]EGTFTSDYSI[Aib]LEKQAQ[Aib]AFVEWLIK([γGlu-γGlu-γGlu-γGlu-γGlu-C20 diacid])GGPSSGASLRHYYNWLTRQRY-NH2 [Compound 238, Y-Aib-E-G-T-F-T-S-D-Y-S-I-Aib-L-E-K-Q-A-Q-Aib-A-F-V-E-W-L-I-K(1,3)-GGPSSGASLRHYYNWLTRQRY-NH2.C20DA-gGlu-gGlu-gGlu-gGlu-gGlu(1,2)]
0.31	–	–	16.8	–	–	H-Y[Aib]EGTFTSDYSI[Aib]LEKQAQ[dR]AFVEWLIK([εLys-γGlu-γGlu-γGlu-γGlu-γGlu-γGlu-C20 diacid])GGPSSGASLRHYYNWLTRQRY-NH2 [Compound 216, Y-Aib-E-G-T-F-T-S-D-Y-S-I-Aib-L-E-K-Q-A-Q-DArg-A-F-V-E-W-L-I-K(1,3)-GGPSSGASLRHYYNWLTRQRY-NH2.C20DA-gGlu-gGlu-gGlu-gGlu-gGlu-gGlu-eLys(1,2)]
1.48	–	28.8	197	–	–	H-Y[Aib]EGTFTSDYSI[Aib]LE[Aib]EAQ[Aib]KFVEWLIK([εLys-γGlu-γGlu-γGlu-γGlu-γGlu-γGlu-C20 diacid])GGPSSGASLRHYYNWLTRQRY-NH2 [Compound 16, Y-Aib-E-G-T-F-T-S-D-Y-S-I-Aib-L-E-Aib-E-A-Q-Aib-K-F-V-E-W-L-I-K(1,3)-GGPSSGASLRHYYNWLTRQRY-NH2.C20DA-gGlu-gGlu-gGlu-gGlu-gGlu-gGlu-eLys(1,2)]
0.74	–	11.2	56.3	–	–	H-Y[Aib]EGTFTSDYSI[Aib]LEKQAQ[dD]AFVEWLIK([εLys-γGlu-γGlu-γGlu-γGlu-γGlu-γGlu-C20 diacid])GGPSSGASLRHYYNWLTRQRY-NH2 [Compound 211, Y-Aib-E-G-T-F-T-S-D-Y-S-I-Aib-L-E-K-Q-A-Q-DAsp-A-F-V-E-W-L-I-K(1,3)-GGPSSGASLRHYYNWLTRQRY-NH2.C20DA-gGlu-gGlu-gGlu-gGlu-gGlu-gGlu-eLys(1,2)]
–	0.5	12.4	–	2.94	–	H-Y[Aib]EGTFTSDYSI[Aib]LEKQAQ[Aib]EFVEWLIK([εLys-γGlu-γGlu-γGlu-γGlu-γGlu-γGlu-C20 diacid])GGPSSGASLRHYYNWLTRQRY-NH2 [Compound 215, Y-Aib-E-G-T-F-T-S-D-Y-S-I-Aib-L-E-K-Q-A-Q-Aib-E-F-V-E-W-L-I-K(1,3)-GGPSSGASLRHYYNWLTRQRY-NH2.C20DA-gGlu-gGlu-gGlu-gGlu-gGlu-gGlu-eLys(1,2)]
–	0.93	19.1	–	–	–	H-Y[Aib]EGTFTSDYSI[Aib]LAAAAQ[Aib]AFVEWLIK([εLys-γGlu-γGlu-γGlu-γGlu-γGlu-γGlu-C20 diacid])GGPSSGASLRHYYNWLTRQRY-NH2 [Compound 20, Y-Aib-E-G-T-F-T-S-D-Y-S-I-Aib-L-A-A-A-A-Q-Aib-A-F-V-E-W-L-I-K(1,3)-GGPSSGASLRHYYNWLTRQRY-NH2.C20DA-gGlu-gGlu-gGlu-gGlu-gGlu-gGlu-eLys(1,2)]
0.5	–	–	19.3	–	10.2	H-Y[Aib]EGTFTSDYSI[Aib]LEKQAQ[Aib]AFVQWLIK([εLys-γGlu-γGlu-γGlu-γGlu-γGlu-γGlu-C20 diacid])GGPSYYVSLRHYYNWLTRQRY-NH2 [Compound 19, Y-Aib-E-G-T-F-T-S-D-Y-S-I-Aib-L-E-K-Q-A-Q-Aib-A-F-V-Q-W-L-I-K(1,3)-GGPSYYVSLRHYYNWLTRQRY-NH2.C20DA-gGlu-gGlu-gGlu-gGlu-gGlu-gGlu-eLys(1,2)]
0.31	–	15.1	–	–	–	H-Y[Aib]EGTFTSDYSI[Aib]LEKQAQ[Aib]AFVEWLIK([εLys-γGlu-γGlu-γGlu-γGlu-γGlu-γGlu-C20 diacid])GGPSSAASLRHYYNWLTRQRY-NH2 [Compound 98, Y-Aib-E-G-T-F-T-S-D-Y-S-I-Aib-L-E-K-Q-A-Q-Aib-A-F-V-E-W-L-I-K(1,3)-GGPSSAASLRHYYNWLTRQRY-NH2.C20DA-gGlu-gGlu-gGlu-gGlu-gGlu-gGlu-eLys(1,2)]
–	0.48	13.6	40.5	–	–	H-Y[Aib]EGTFTSDYSI[Aib]LEKQAQ[Aib]AFVEWLIK([εLys-γGlu-γGlu-γGlu-γGlu-γGlu-γGlu-C20 diacid])GGPRYYASLRHYYNWLTRQRY-NH2 [Compound 62, Y-Aib-E-G-T-F-T-S-D-Y-S-I-Aib-L-E-K-Q-A-Q-Aib-A-F-V-E-W-L-I-K(1,3)-GGPRYYASLRHYYNWLTRQRY-NH2.C20DA-gGlu-gGlu-gGlu-gGlu-gGlu-gGlu-eLys(1,2)]

— US20240247080A1, “GLP1/GIP/NPY2 RECEPTOR TRIPLE AGONISTS” (Boehringer Ingelheim International GmbH, priority 2022, published 2024)
